In patent publication US6492329B1, “Cytokine and hemopoietic factor endogenous production enhancer and methods of use thereof” (Novelos Therapeutics, Inc., priority 1995, dated 2002):

Tests used:
[1] = test system: e-ras cells after UV-irradiation; assay: Number of clones of e-ras cells after UV-irradiation; format: cell-based, rat
Protocol: (§1) To this end, these substances had been incubated for 72 hours with cells of rat embrional fibroblasts (REF) and the same cells, transformed with adenoviral E1A gene in complementation with ras-oncogene (e-ras cell line). Subsequent evaluation of the cellularity of experimental samples was carried out by counting the quantity of cell per milliliter (for REF cell line) or clones in dish (for e-ras cell line).
(§2) Cells were cultivated on DMEM medium supplemented with 10% fetal calf serum and […] gentamicin. Cultivation was carried out in Petri dishes.
(§3) E-ras cells were seeded at a cell density of 300 cells per 5 cm dish. 7 days after growth of e-ras cells had been started the quantity of clones was evaluated and the test articles were added into the dishes.
(§4) For the test-system for estimation of apoptosis regulation UV-induced cell death was triggered in a dose of 4 Dj. Test articles were added immediately after irradiation. Then, the quantity of cell per milliliter (for REF cell line) or clones in dish (for e-ras cell line) were monitored every 24 hours. For determination of DNA-fragmentation the electrophoresis in agarose gel was used at standard settings.

leukemia L1210 cells = assay: Leukemia L1210 in mice: ascitic fluid and survival (Example 14); details: for Accumulation of ascitic (weight gain, %): leukemia L1210
Protocol: An influence of 7 day course of test article daily administration was studied in respect of tumor progression, which was estimated using the two integral indices: pace of mouse weight gain due to accumulation of ascitic fluid, and by animal mean survival time after inoculation.
The study was carried out on DBA/2 mice weighing 18-21 g. First, tumor cell passage was performed using 6 animals for each cell line. For this, cells kept at the temperature of the liquid nitrogen were de-frozen and adjusted to the concentration of 5×10^6 cells/mL by sterile Hanks' solution. Then, 6 mice were intra peritoneally inoculated with 0.2 mL of each line cellular suspension.
Ascitic fluid was collected 6 days after the inoculation with L1210 cells, 8 days after the inoculation with P388 ones and 18 days after inoculation with Erlich adenocarcinoma cells. Thus obtained, the samples of passaged tumor cells were used for the main experiments. The fluid liquid was dissolved by sterile Hanks' solution so that cell concentration be 5×10^6 cells/mL for P388 cells and Erlich adenocarcinoma cells, 5×10^5 cells/mL for L1210 cells.
Eleven groups of animals with no less than 15 mice each were formed for experiments with either tumor cell line. Mice were inoculated with 0.2 mL of resultant cell suspensions per mouse (10^6 P388 and Erlich adenocarcinoma cells/mouse, and 10^5 L1210 cells/mouse). 24 hours after the tumor cells inoculation, animals were given the first injections of the test articles or vehicles. The test article injections were made daily till the 14th day of the experiment or till the animal death. The volume of solutions injected comprised 0.01 mL/g body weight.
#1—intact animals receiving imitation of tumor cell inoculation (injection of normal saline) which further were treated with normal saline throughout the entire experiment;
#2—control animals, inoculated with tumor cells, which further were treated with test article vehicle (normal saline);

[2] = test system: rat embrional fibroblasts (REF) after UV-irradiation; assay: Number of REF cells after UV-irradiation; format: cell-based
Protocol: as §1, §2
(§5) REF cells was cultivated with initial density of 800 000 cell per mL, evaluation of the cellularity was performed at 0, 24, 48 and 72 hours of incubation with the test articles.
as §4

leukemia P388 cells = assay: Leukemia P388 in mice: ascitic fluid and survival (Example 14); details: for Accumulation of ascitic (weight gain, %): leukemia P388; for Mean survival time: mice inoculated with leukemia P388 cells
[3] = test system: e-ras cell line (REF transformed with E1A and ras-oncogene); assay: Number of clones of e-ras cells throughout 72-hr incubation; format: cell-based, rat
Protocol: as §1, §2, §3, §4

[4] = test system: rat embrional fibroblasts (REF); assay: Number of REF cells throughout 72-hr incubation; format: cell-based
Protocol: as §1, §2, §5, §4

[5] = test system: Erlich adenocarcinoma cells; assay: Erlich adenocarcinoma in mice: ascitic fluid and survival (Example 14); details: for Accumulation of ascitic (weight gain, %): Erlich adenocarcinoma

## C[S+](C)[O-] [7% DMSO]
[1]; 0 hours
  number of clones of e-ras cells after UV-irradiation (M ± m): 268 ± 11
[1]; 24 hours
  number of clones of e-ras cells after UV-irradiation (M ± m): 171 ± 2
[1]; 48 hours
  number of clones of e-ras cells after UV-irradiation (M ± m): 108 ± 8
[1]; 72 hours
  number of clones of e-ras cells after UV-irradiation (M ± m): 103 ± 6
Leukemia L1210 cells; number of injection 0
  Accumulation of ascitic (weight gain, %): 0.51 ± 0.1%
Leukemia L1210 cells; number of injection 3
  Accumulation of ascitic (weight gain, %): 6.4 ± 1.4%
Leukemia L1210 cells; number of injection 7
  Accumulation of ascitic (weight gain, %): 23.6 ± 2.6%
Leukemia L1210 cells; mice inoculated with leukemia L1210 cells
  Mean survival time: 10.2 ± 0.8
[2]; 0 hours
  number of REF cells after UV-irradiation (M ± m): 801 ± 12 × 10^3 cells
[2]; 24 hours
  number of REF cells after UV-irradiation (M ± m): 420 ± 17 × 10^3 cells
[2]; 48 hours
  number of REF cells after UV-irradiation (M ± m): 251 ± 36 × 10^3 cells
[2]; 72 hours
  number of REF cells after UV-irradiation (M ± m): 208 ± 39 × 10^3 cells
Leukemia P388 cells; number of injection 0
  Accumulation of ascitic (weight gain, %): 0.5 ± 0.1%
Leukemia P388 cells; number of injection 3
  Accumulation of ascitic (weight gain, %): 5.4 ± 1.4%
Leukemia P388 cells; number of injection 7
  Accumulation of ascitic (weight gain, %): 19.6 ± 1.6%
Leukemia P388 cells
  Mean survival time: 20.6 ± 1.8
[3]; 0 hours of incubation
  number of clones of e-ras cells (M ± m): 268 ± 11
[3]; 24 hours of incubation
  number of clones of e-ras cells (M ± m): 271 ± 2
[3]; 48 hours of incubation
  number of clones of e-ras cells (M ± m): 268 ± 8
[3]; 72 hours of incubation
  number of clones of e-ras cells (M ± m): 243 ± 6
[4]; 0 hours of incubation
  number of REF cells (M ± m): 801 ± 12 × 10^3 cells
[4]; 24 hours of incubation
  number of REF cells (M ± m): 1420 ± 17 × 10^3 cells
[4]; 48 hours of incubation
  number of REF cells (M ± m): 2651 ± 36 × 10^3 cells
[4]; 72 hours of incubation
  number of REF cells (M ± m): 5298 ± 39 × 10^3 cells
[5]; number of injection 0
  Accumulation of ascitic (weight gain, %): 0.5 ± 0.2%
[5]; number of injection 3
  Accumulation of ascitic (weight gain, %): 11.4 ± 1.1%
[5]; number of injection 7
  Accumulation of ascitic (weight gain, %): 24.6 ± 2.2%
[5]; mice inoculated with Erlich adenocarcinoma cells
  Mean survival time: 10.3 ± 1.8

## NCCSSCCNC(=O)CNC(=O)C(CSSCC(NC(=O)CCC(N)C(=O)O)C(=O)NCC(=O)O)NC(=O)CCC(N)C(=O)O (centres unmarked) [S-thioeethylamine-GSSG + normal saline]
Leukemia P388 cells; number of injection 0
  Accumulation of ascitic (weight gain, %): 0.7 ± 0.2%
Leukemia P388 cells; number of injection 3
  Accumulation of ascitic (weight gain, %): 2.1 ± 0.4%
Leukemia P388 cells; number of injection 7
  Accumulation of ascitic (weight gain, %): 8.2 ± 1.2%
Leukemia P388 cells
  Mean survival time: 28.2 ± 0.8
